As a reminder, the Kd is the free concentration of one partner at which half of the binding sites on the other are occupied at equilibrium, for simple one-to-one binding. A low value points to tighter binding.

In ChEMBL document CHEMBL1136964, “Nicotinic agonist binding site mapped by methionine- and tyrosine-scanning coupled with azidochloropyridinyl photoaffinity labeling” (J Med Chem, 2009) one finds Activity and Kd data, which are given here for one compound.

What all share (type): cell-based
The subject of test [1] is HEK293S. The test can be described thus: Binding affinity to Aplysia californica AchBP Y195F mutant expressed in HEK293S cells assessed as specific photoincorporation at 46 pmol by scintillation counting.
Test [2] can be described thus: Binding affinity to Aplysia californica AchBP I118M, M116L, Y195F mutant expressed in HEK293S cells by scintillation proximity assay. A general note: In a scintillation proximity assay essentially only radioactivity close to the scintillant gives light.
Test [3] is described as follows: Binding affinity to Aplysia californica AchBP M116Y mutant expressed in HEK293S cells by scintillation proximity assay.
Test [4] has as its system HEK293S. Description: Binding affinity to Aplysia californica AchBP I106M, M116L, Y195F mutant expressed in HEK293S cells assessed as specific photoincorporation at 46 pmol by scintillation counting relative to wild type.
Test [5] has as its system HEK293S. The test can be described thus: Binding affinity to Aplysia californica AchBP M116L,Y195F mutant expressed in HEK293S cells assessed as specific photoincorporation at 46 pmol by scintillation counting relative to wild type.
The subject of test [6] is HEK293S. The test can be described thus: Binding affinity to Aplysia californica AchBP M116Y, Y195F mutant expressed in HEK293S cells assessed as specific photoincorporation at 46 pmol by scintillation counting relative to wild type.
The test system of test [7] is HEK293S. The test can be described thus: Binding affinity to Aplysia californica AchBP I106M, M116L, Y195F mutant expressed in HEK293S cells assessed as specific photoincorporation at 46 pmol by scintillation counting.
Test [8] is described as follows: Binding affinity to wild type Aplysia californica AchBP expressed in HEK293S cells by scintillation proximity assay.
A short description of test [9]: Binding affinity to Aplysia californica AchBP Y195F mutant expressed in HEK293S cells by scintillation proximity assay.
The nature of test [10]: Binding affinity to Aplysia californica AchBP V108M, M116L, Y195F mutant expressed in HEK293S cells by scintillation proximity assay.
Test [11] in a line: Binding affinity to Aplysia californica AchBP A107M mutant expressed in HEK293S cells by scintillation proximity assay.
Test [12] relates to HEK293S. The test can be described thus: Binding affinity to Aplysia californica AchBP V108M, M116L, Y195F mutant expressed in HEK293S cells assessed as specific photoincorporation at 46 pmol by scintillation counting.
The subject of test [13] is HEK293S. The test can be described thus: Binding affinity to Aplysia californica AchBP Y195F mutant expressed in HEK293S cells assessed as specific photoincorporation at 46 pmol by scintillation counting relative to wild type.
Test [14] in a line: Binding affinity to Aplysia californica AchBP S114M mutant expressed in HEK293S cells by scintillation proximity assay.
Test [15] is described as follows: Binding affinity to Aplysia californica AchBP S114M, M116L mutant expressed in HEK293S cells by scintillation proximity assay.
In test [16] the test system is HEK293S. The test can be described thus: Binding affinity to Aplysia californica AchBP V108M, M116L mutant expressed in HEK293S cells assessed as specific photoincorporation at 46 pmol by scintillation counting relative to wild type.
In test [17] the test system is HEK293S. The test can be described thus: Binding affinity to Aplysia californica AchBP I106M, M116L mutant expressed in HEK293S cells assessed as specific photoincorporation at 46 pmol by scintillation counting relative to wild type.
Test [18] deals with HEK293S. Description: Binding affinity to Aplysia californica AchBP I118M, M116L mutant expressed in HEK293S cells assessed as specific photoincorporation at 46 pmol by scintillation counting.

Regarding `Clc1ccc(C2CC3CCC2N3)cn1` (racemic) [EPIBATIDINE], the Activity was found to be 1% in the test on HEK293S [1]; 13% in the test on HEK293S [4]; 6.9% in the test with HEK293S [5]; 30% in the test with HEK293S [6]; 3.7% with HEK293S [7]; 0% in the test with HEK293S [12]. In addition, the Activity with HEK293S [13] came out at 3.4%; in the test with HEK293S [16] it was 28%; in the test on HEK293S [17] it was 90%; in the test with HEK293S [18], 16%. Further, the Kd in test [2] amounted to 24 nM; in test [3], 57 nM; in test [8] it was 8.6 nM; in test [9], 21 nM; in [10] it was 2.9 nM; in [11], 10 nM. Further, the Kd in test [14] came to 16 nM; in [15], 12 nM.
